Target: T1, PR-A (Homo sapiens, UniProt P06401)
T1 construct: expressed in transfected cells
T1 sequence (P06401 1-769 isoform P06401-2): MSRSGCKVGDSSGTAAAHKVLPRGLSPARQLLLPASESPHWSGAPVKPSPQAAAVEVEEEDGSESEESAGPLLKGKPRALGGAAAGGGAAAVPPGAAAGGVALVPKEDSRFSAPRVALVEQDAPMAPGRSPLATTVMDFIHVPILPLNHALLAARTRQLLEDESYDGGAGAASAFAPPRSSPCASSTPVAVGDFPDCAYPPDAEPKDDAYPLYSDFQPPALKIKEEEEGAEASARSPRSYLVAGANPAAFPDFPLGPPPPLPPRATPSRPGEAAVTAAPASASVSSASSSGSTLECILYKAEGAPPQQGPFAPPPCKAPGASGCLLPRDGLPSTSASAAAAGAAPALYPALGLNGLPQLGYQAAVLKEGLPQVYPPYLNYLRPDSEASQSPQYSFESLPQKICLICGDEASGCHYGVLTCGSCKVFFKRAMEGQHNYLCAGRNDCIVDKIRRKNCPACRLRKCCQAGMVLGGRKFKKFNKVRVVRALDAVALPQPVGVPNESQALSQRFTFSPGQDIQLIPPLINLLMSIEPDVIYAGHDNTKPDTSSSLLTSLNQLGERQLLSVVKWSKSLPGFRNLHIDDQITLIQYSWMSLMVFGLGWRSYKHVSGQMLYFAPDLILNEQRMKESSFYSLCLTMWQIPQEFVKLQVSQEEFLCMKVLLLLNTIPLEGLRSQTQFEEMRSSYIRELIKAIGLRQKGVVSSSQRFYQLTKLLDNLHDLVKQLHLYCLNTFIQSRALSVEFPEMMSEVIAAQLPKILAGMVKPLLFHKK
Test: Transcriptional assay: integrin alpha 6 promoter-luciferase in HeLa cells cotransfected with PR-A
Type: cell-based
Conditions: 10 nM progesterone 24 hours

Question: Which “Transcription of the integrin alpha 6 promoter (luciferase)” value does the source give for `CC(=O)[C@H]1CC[C@H]2[C@@H]3CCC4=CC(=O)CC[C@]4(C)[C@H]3CC[C@]12C` [progesterone] here?
Answer: Its value is “not regulated at all”.

Reference: patent US6750015B2 (priority 2000, dated 2004)
